{
  "source": "paper PMC11428593",
  "about": "(Antibiotics, 2024)",
  "format_in_all_cases": "cell-based, Staphylococcus aureus",
  "key": {"MRSA USA300LAC": {"tested_on": "MRSA USA300LAC", "assay": "MIC by broth microdilution (CLSI)", "conditions": "Staphylococcus aureus, MRSA, 16 h", "protocol": "The MIC values of the alkyl pyridinol derivatives against the S. aureus strain ATCC 25923, MRSA strains ATCC 33591, ATCC BAA-44, and USA300LAC, as well as the P. aeruginosa strain ATCC 27853, were determined by following the CLSI guidelines for the broth microdilution antibiotic sensitivity testing protocol. In brief, the overnight cultures were diluted into Mueller Hinton Broth (MHB) to a final inoculum concentration of 5 × 10^5 CFU/mL (O.D600nm = 0.00001) and dispensed into a 96-well polystyrene plate (Alkali Scientific, Fort Lauderdale, FL, USA). Alkyl pyridine compounds were diluted into inoculated MHB to the indicated concentrations from stock solutions that would allow for DMSO concentrations below 5%, resulting in a total volume of 200 μL per well. The plates were subsequently incubated at 37 °C for 16 h at 300 rpm. The MIC values, which are defined as the lowest compound concentration that inhibited growth, were determined from three biological replicates."}, "[1]": {"tested_on": "S. aureus strain USA300LAC biofilm", "assay": "Inhibition of biofilm formation (crystal violet)", "conditions": "up to 4× MIC, in words", "protocol": "(§1) The establishment of a bacterial biofilm usually begins with pathogen attachment to biotic and abiotic surfaces, and S. aureus is notorious for its ability to form biofilms on surfaces, such as implants and catheters, which presents a unique treatment challenge.\n(§2) Overnight cultures of S. aureus strain USA300LAC were diluted into fresh TSB to an OD600nm = 0.001 and incubated aerobically at 37 °C until the mid-log phase. (A) To detect effects on biofilm formation, cultures were diluted to an OD600nm = 0.0001 in the presence and absence of JC-01-074 and vancomycin at concentrations of 0.5–4× MIC, respectively. (B) To detect effects on biofilm eradication, cultures were diluted to an OD600nm = 0.0001 and incubated under static conditions for 24 h, after which planktonic cells were removed, and the preformed biofilms were washed twice with PBS. […] Biofilm mass was quantified after 20 h via crystal violet staining. One-way ANOVA, Dunnett’s multiple-comparison test (* p < 0.05, ** p < 0.01); (n = 3, ±S.D.).\nThe overnight USA300LAC cultures were diluted 1000-fold into the fresh TSB media and incubated under shaking conditions at 37 °C until the mid-log phase. The cultures were subsequently diluted to approximately 4 × 10^6 CFU/mL and dispended into 96-well polystyrene plates (Alkali Scientific, Fort Lauderdale, FL, USA) containing DMSO (control), vancomycin (0.5–4× MIC), or the indicated alkyl pyridinol compounds (0.5–4× MIC) and sealed with a breath-easy membrane (Fisherbrand, Waltham, MA, USA). The peripheral wells were filled with PBS to limit evaporation. The plates were incubated without agitation at 37 °C for 24 h, following which the planktonic cells were removed. The biofilms were washed twice with PBS, stained with 0.1% crystal violet (CV) for 15 min, and washed again twice with PBS to remove the unbound CV dye. CV bound to biofilm cells was extracted with 30% (v/v) glacial acetic acid, and the O.D.595nm was determined."}, "[2]": {"tested_on": "S. aureus strain USA300LAC established biofilm", "assay": "Biofilm eradication assay (crystal violet)", "conditions": "at or below 4× MIC, 24 h, in words", "protocol": "as §1, §2\nThe overnight USA300LAC cultures were diluted 1000-fold into the TSB media and incubated under shaking conditions at 37 °C until the mid-log phase. […] After 24 h of incubation, biofilm eradication was assessed via CV staining at 595 nm in a Tecan 200 Infinite Pro microplate reader (Tecan, Morgan Hill, CA, USA)."}, "[3]": {"tested_on": "S. aureus strain USA300LAC", "assay": "Checkerboard assay with JC-01-074 (FIC index)", "conditions": "MHB, 37 °C, 20 h, antibiotic combined with JC-01-074", "protocol": "Therefore, we tested whether the membrane-disrupting effects of JC-01-074 could increase the sensitivity of the S. aureus strain USA300LAC to antibiotics of different classes; for instance, by facilitating their uptake into the cytoplasm. […] Antibiotic concentrations were prepared by the microbroth dilution in MHB based on their MIC values (Table 1) to obtain the final concentrations as outlined in the 96-well plate scheme for each antibiotic tested (Supplementary Figure S3). Overnight USA300LAC cultures were diluted to 5 × 10^5 CFU/mL in MHB, and the growth was recorded at 37 °C and 200 rpm for 20 h in the presence and absence of the indicated antibiotic.\nFICs were calculated as the ratio of the MIC of the antimicrobial in combination with the MIC of the antimicrobial alone. Interactions were categorized as synergistic (<0.5), additive or no interaction (0.5–2), and antagonistic (>2). FICs were calculated from three biological replicates.\nFollowing previous studies, the checkerboard assay was employed to determine whether JC-01-074 had synergistic effects in combination with members of different antibiotic classes. The indicated antibiotics tested in combination were first serially diluted two-fold in MHB on a longitudinal axis in a 96-well polystyrene plate. JC-01-074 was then serially diluted two-fold across the 96-well plate horizontal axis. The plates were inoculated with USA300LAC to a final inoculum concentration of 5 x10^5 CFU/mL (O.D.600nm = 0.0001) and incubated overnight at 37 °C for 20 h. The growth was measured at 600 nm in a Tecan 200 Infinite Pro microplate reader. The fractional inhibitory concentration was calculated as follows:FIC = MICJC-01-074 + antibiotics/[…]\nThe classification of interactions was based on the FIC index: interactions were categorized as synergistic (FIC ≤ 0.5), additive/no interaction (FIC 0.5–2.0), and antagonistic (FIC > 2.0)."}},
  "data": [
    {"smiles": "CN[C@H](CC(C)C)C(=O)N[C@H]1C(=O)N[C@@H](CC(N)=O)C(=O)N[C@H]2C(=O)N[C@H]3C(=O)N[C@H](C(=O)N[C@H](C(=O)O)c4cc(O)cc(O)c4-c4cc3ccc4O)[C@H](O)c3ccc(c(Cl)c3)Oc3cc2cc(c3O[C@@H]2O[C@H](CO)[C@@H](O)[C@H](O)[C@H]2O[C@H]2C[C@](C)(N)[C@H](O)[C@H](C)O2)Oc2ccc(cc2Cl)[C@H]1O", "note": "[Vancomycin, reference compound]", "values": [
      {"measurement": "MIC", "setting": "MRSA USA300LAC", "result": 1, "unit": "µg/mL"},
      {"measurement": "inhibition of biofilm formation", "setting": "[1]", "result": "failed to significantly inhibit biofilm formation"},
      {"measurement": "eradication of established biofilms", "setting": "[2]", "result": "neither JC-01-074 nor vancomycin successfully reduced established biofilms"},
      {"measurement": "interaction with JC-01-074 (sum of FIC values)", "setting": "[3]", "result": "additive (additive/no interaction (FIC 0.5–2.0))"}
    ]}
  ]
}
